pIC50: −log10 of the molar value.

In this assay the target is T1, human c-Met (Homo sapiens, UniProt P08581).
T1 construct: Recombinant GST-tagged cytosolic domains of human c-Met; 6xHis; made in house; host or cells: Sf9 or Sf21 insect cells (baculovirus)
Description: in vitro kinase assay (homogeneous time-resolved tyrosine kinase assay, METKA). In kind it is biochemical. The following applies: recombinant GST-tagged c-Met cytosolic domain, HTRF, 50 μM MgATP; read-out: Biological Activity (METKA IC50) Activity Code. An excerpt:
Recombinant GST-tagged cytosolic domains of human c-Met and other receptor tyrosine kinases including mouse c-Met, human Ron, KDR, IGFR, EGFR, FGFR, Mer, TrkA and Tie2 are used to determine whether the compounds of the instant invention modulate the enzymatic activities of these kinases.
Soluble recombinant GST-tagged cytosolic domains of c-Met and other receptor tyrosine kinases are expressed in a baculovirus system (Pharmingen) according to a protocol recommended by the manufacturer. The c-DNA encoding each cytosolic domain is subcloned into a baculovirus expression vector (pGcGHLT-A, B or C, Pharmingen) containing an in frame 6× histidine tag and a GST tag. The resulting plasmid construct and BaculoGold baculovirus DNA (Pharmingen) are used to co-transfect Sf9 or Sf21 insect cells. After confirming expression of GST-tagged kinase fusion, a high titer recombinant baculovirus stock is produced, expression conditions are optimized, and a scaled up expression of rat KDR-GST fusion is performed. The fusion kinase is then purified from the insect cell lysate by affinity chromatography using glutathione agarose (Pharmingen). The purified protein is dialyzed against 50% glycerol, 2 mM DTT, 50 mM Tris-HCl (pH 7.4) and stored at −20° C. The protein concentrations of the fusion proteins are determined using Coomassie Plus Protein Assay (Pierce) with BSA as standard.
The kinase activities of c-Met and other kinases are measured using a modified version of the homogeneous time-resolved tyrosine kinase assay described by Park et al. (1999, Anal. Biochem. 269:94-104).
The procedure for determining the potency of a compound to inhibit c-Met kinase comprises the following steps: • 1. Prepare 3-fold serial diluted compound solutions in 100% dimethyl sulfoxide (DMSO) at 20× of the desired final concentrations in a 96 well plate. • 2. Prepare a master reaction mix containing 6.67 mM MgCl2, 133.3 mM NaCl, 66.7 mM Tris-HCl (pH 7.4), 0.13 mg/ml BSA, 2.67 mM dithiothreitol, 0.27 nM recombinant c-Met and 666.7 nM biotinylated synthetic peptide substrate (biotin-ahx-EQEDEPEGDYFEWLE-CONH2) (SEQ.ID.NO.:1). • 3. In a black assay plate, add 2.5 μl of compound solution (or DMSO) and 37.5 μl of master reaction mix per well. Initiate the kinase reaction by adding 10 μl of 0.25 mM MgATP per well. Allow the reactions to proceed for 80 min at room temperature. The final conditions for the reaction are 0.2 nM c-Met, 0.5 μM substrate, 50 μM MgATP, […], 100 mM NaCl, 2 mM DTT, 0.1 mg/ml BSA, 50 mM Tris (pH 7.4) and 5% DMSO. • 4. Stop the kinase reaction with 50 μl of Stop/Detection buffer containing 10 mM EDTA, 25 mM HEPES, 0.1% TRITON X-100, 0.126 μg/ml Eu-chelate labeled anti-phosphotyrosine antibody PY20 (cat. #AD0067, PerkinElmer) and 45 μg/ml Streptavidin-allophycocyanin conjugate (cat. #PJ25S, Prozyme). • 5. Read HTRF signals on a Victor reader (PerkinElmer) in HTRF mode after 60 min. • 6. IC50 is determined by fitting the observed relationship between compound concentration and HTRF signal with a 4-parameter logistic equation. Essentially the same procedure was used to determine the potency of compounds to inhibit mouse c-Met, human Ron, KDR, IGFR, EGFR, FGFR, Mer, TrkA and Tie2 except that the concentration of enzyme varied in individual assays (0.2 nM mouse c-Met; 2.5 nM Ron, 8 nM KDR; 0.24 nM IGFR; 0.24 nM EGFR; 0.14 nM FGFR; 16 nM Mer; 8 nM TrkA; 8 nM Tie2).
A general note: Time-resolved FRET reads energy transfer from a long-lived donor to a nearby acceptor.

T1 sequence (P08581 956-1390 limits assumed): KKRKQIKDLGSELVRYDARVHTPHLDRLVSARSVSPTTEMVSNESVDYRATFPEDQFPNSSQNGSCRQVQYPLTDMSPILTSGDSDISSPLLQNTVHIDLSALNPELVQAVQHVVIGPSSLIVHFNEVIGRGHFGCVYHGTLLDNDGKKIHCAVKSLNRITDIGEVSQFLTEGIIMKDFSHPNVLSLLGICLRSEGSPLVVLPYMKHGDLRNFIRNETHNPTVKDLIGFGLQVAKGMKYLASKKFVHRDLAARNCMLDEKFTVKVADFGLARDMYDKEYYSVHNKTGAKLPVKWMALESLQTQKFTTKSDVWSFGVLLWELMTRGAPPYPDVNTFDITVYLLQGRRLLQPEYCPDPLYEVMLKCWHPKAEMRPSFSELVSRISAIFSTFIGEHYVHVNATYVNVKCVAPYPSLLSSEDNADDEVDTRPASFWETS

For the molecule `CCOc1cnc2ccc(OCc3nn(-c4cc(F)cc(C#N)c4)ccc3=O)cc2c1` [Example 44, 3-[3-{[(3-ethoxyquinolin-6-yl)oxy]methyl}-4-oxopyridazin-1(4H)-yl]-5-fluorobenzonitrile], the pIC50 (in general, the IC50 on a negative log10 scale, so that one unit is a factor of ten) is above 7.00.
With `CCOc1cnc2ccc(OCc3nn(-c4cc(Cl)cc(C#N)c4)ccc3=O)cc2c1` [Example 45, 3-chloro-5-[3-{[(3-ethoxyquinolin-6-yl)oxy]methyl}-4-oxopyridazin-1(4H)-yl]benzonitrile] the figure was above 7.00; with `CCOc1cnc2ccc(OCc3nn(-c4ccc(F)c(F)c4)ccc3=O)cc2c1` [Example 46, 1-(3,4-difluorophenyl)-3-{[(3-ethoxyquinolin-6-yl)oxy]methyl}pyridazin-4(1H)-one], above 7.00.
With `CCOc1cnc2ccc(OCc3nn(-c4cc(F)cc(F)c4)ccc3=O)cc2c1` [Example 47, 1-(3,5-difluorophenyl)-3-{[(3-ethoxyquinolin-6-yl)oxy]methyl}pyridazin-4(1H)-one] the figure was above 7.00.
With `COc1ccnc2ccc(OCc3nn(-c4cnn(C)c4)ccc3=O)cc12` [Example 48, 3-{[(4-Methoxyquinolin-6-yl)oxy]methyl}-1-(1-methyl-1H-pyrazol-4-yl)pyridazin-4(1H)-one] the figure was above 7.00.
As for `COc1ccc2cc(OCc3nn(-c4cnn(C)c4)ccc3=O)ccc2n1` [Example 49, 3-{[(2-methoxyquinolin-6-yl)oxy]methyl}-1-(1-methyl-1H-pyrazol-4-yl)pyridazin-4(1H)-one], the pIC50 was 6.00 to 7.00.
With `Cc1ccnc2ccc(OCc3nn(-c4cnn(C)c4)ccc3=O)cc12` [Example 50, 1-(1-methyl-1H-pyrazol-4-yl)-3-{[(4-methylquinolin-6-yl)oxy]methyl}pyridazin-4(1H)-one], the pIC50 is above 7.00.
To `NC(=O)c1cccc(-n2ccc(=O)c(COc3ccc4ncccc4c3)n2)c1` [Example 51, 3-{4-Oxo-3-[(quinolin-6-yloxy)methyl]pyridazin-1(4H)-yl}benzamide] belongs above 7.00.
To `COCCOc1cnc2ccc(OCc3nn(-c4cccc(C(=O)N(C)C)c4)ccc3=O)cc2c1` [Example 52, 3-[3-({[3-(2-methoxyethoxy)quinolin-6-yl]oxy}methyl)-4-oxopyridazin-1(4H)-yl]-N,N-dimethylbenzamide] belongs 5.52 to 6.00; to `Cn1cc(-n2ccc(=O)c(CCc3ccc4ncccc4c3)n2)cn1` [Example 53, 1-(1-Methyl-1H-pyrazol-4-yl)-3-[2-(quinolin-6-yl)ethyl]pyridazin-4(1H)-one], above 7.00.
With `Cn1cc(-n2ccc(=O)c(CCc3ccnc4ccccc34)n2)cn1` [Example 54, 1-(1-methyl-1H-pyrazol-4-yl)-3-(2-quinolin-4-ylethyl)pyridazin-4(1H)-one] the figure was 5.52 to 6.00; with `Cn1cc(-n2ccc(=O)c(CCc3ccnc4[nH]ccc34)n2)cn1` [Example 55, 1-(1-methyl-1H-pyrazol-4-yl)-3-[2-(1H-pyrrolo[2,3-b]pyridin-4-yl)ethyl]pyridazin-4(1H)-one], 5.52 to 6.00.
In the case of `COC(=O)c1ccc(CCc2nn(-c3cnn(C)c3)ccc2=O)cc1` [Example 56, methyl 4-{2-[1-(1-methyl-1H-pyrazol-4-yl)-4-oxo-1,4-dihydropyridazin-3-yl]ethyl}benzoate], the negative logarithm of the IC50 (pIC50) is 5.52 to 6.00.
With `COCCOc1cnc2ccc(CCc3nn(-c4cnn(C)c4)ccc3=O)cc2c1` [Example 57, 3-{2-[3-(2-methoxyethoxy)quinolin-6-yl]ethyl}-1-(1-methyl-1H-pyrazol-4-yl)pyridazin-4(1H)-one] the figure was above 7.00; with `CCOc1cnc2ccc(CCc3nn(-c4cnn(C)c4)ccc3=O)cc2c1` [Example 58, 3-[2-(3-ethoxyquinolin-6-yl)ethyl]-1-(1-methyl-1H-pyrazol-4-yl)pyridazin-4(1H)-one], above 7.00; with `COc1ccnc2ccc(CCc3nn(-c4cnn(C)c4)ccc3=O)cc12` [Example 59, 3-[2-(4-methoxyquinolin-6-yl)ethyl]-1-(1-methyl-1H-pyrazol-4-yl)pyridazin-4(1H)-one], above 7.00.
To `Cn1cc(-n2ccc(=O)c(CCc3ccc4nccnc4c3)n2)cn1` [Example 60, 1-(1-Methyl-1H-pyrazol-4-yl)-3-[2-(quinoxalin-6-yl)ethyl]pyridazin-4(1H)-one] belongs 5.52 to 6.00; to `Cn1cc(-n2ccc(=O)c(COc3ccc4ncc(O)cc4c3)n2)cn1` [Example 61, 3-Hydroxy-6-{[1-(1-methyl-1H-pyrazol-4-yl)-4-oxo-1,4-dihydropyridazin-3-yl]methoxy}quinolinium chloride], above 7.00; to `Cn1cc(-n2ccc(=O)c(COc3ccc4ncc(OCC(C)(C)O)cc4c3)n2)cn1` [Example 62, 3-({[3-(2-Hydroxy-2-methylpropoxy)quinolin-6-yl]oxy}methyl)-1-(1-methyl-1H-pyrazol-4-yl)pyridazin-4(1H)-one], above 7.00.
To `Cn1cc(-n2ccc(=O)c(COc3ccc4ncc(OC5COC5)cc4c3)n2)cn1` [Example 63, 1-(1-Methyl-1H-pyrazol-4-yl)-3-({[3-(oxetan-3-yloxy)quinolin-6-yl]oxy}methyl)pyridazin-4(1H)-one] belongs above 7.00.
For the molecule `[2H]C([2H])([2H])C([2H])([2H])Oc1cnc2ccc(OCc3nn(-c4cnn(C)c4)ccc3=O)cc2c1` [Example 64, 3-[({3-[(^2H5)ethyloxy]quinolin-6-yl}oxy)methyl]-1-(1-methyl-1H-pyrazol-4-yl)pyridazin-4(1H)-one], the pIC50 is above 7.00.
Take `Cn1cc(-n2ccc(=O)c(COc3ccc4ncc(OCC(F)F)cc4c3)n2)cn1` [Example 65, 3-({[3-(2,2-difluoroethoxy)quinolin-6-yl]oxy}methyl)-1-(1-methyl-1H-pyrazol-4-yl)pyridazin-4(1H)-one]: the pIC50 was above 7.00.
To `Cn1cc(-n2ccc(=O)c(COc3ccc4ncc(OC(F)F)cc4c3)n2)cn1` [Example 66, 3-({[3-(difluoromethoxy)quinolin-6-yl]oxy}methyl)-1-(1-methyl-1H-pyrazol-4-yl)pyridazin-4(1H)-one] belongs above 7.00.
To `CCn1cc(-n2ccc(=O)c(COc3ccc4ncc(Oc5ccccn5)cc4c3)n2)cn1` [Example 67, 1-(1-ethyl-1H-pyrazol-4-yl)-3-({[3-(pyridin-2-yloxy)quinolin-6-yl]oxy}methyl)pyridazin-4(1H)-one] belongs above 7.00.
With `CCn1cc(-n2ccc(=O)c(COc3ccc4ncc(OCC(F)F)cc4c3)n2)cn1` [Example 68, 3-({[3-(2,2-difluoroethoxy)quinolin-6-yl]oxy}methyl)-1-(1-ethyl-1H-pyrazol-4-yl)pyridazin-4(1H)-one] the figure was above 7.00; with `CCn1cc(-n2ccc(=O)c(COc3ccc4ncc(OC5CCOC5)cc4c3)n2)cn1` (stereo not drawn) [Example 69, 1-(1-ethyl-1H-pyrazol-4-yl)-3-({[3-(tetrahydrofuran-3-yloxy)quinolin-6-yl]oxy}methyl)pyridazin-4(1H)-one], above 7.00; with `CCn1cc(-n2ccc(=O)c(COc3ccc4ncc(OCc5noc(C)n5)cc4c3)n2)cn1` [Example 70, 1-(1-ethyl-1H-pyrazol-4-yl)-3-[({3-[(5-methyl-1,2,4-oxadiazol-3-yl)methoxy]quinolin-6-yl}oxy)methyl]pyridazin-4(1H)-one], above 7.00.

(Values after patent US20130116231A1, “TYROSINE KINASE INHIBITORS” (Merck Sharp & Dohme Corp., priority 2010, published 2013).)
